Laboratory results published in PMC8155022 (Scientific Reports, 2021).
Read-outs that look alike come from different tables or passages of the source.

Columns and labels:
[1] = tested on: human CD4+ T cells under Th17 differentiation; assay: in vitro human Th17 differentiation, cytokine production
Protocol: On day 4, supernatants were analyzed for IL-17A, IL-17F, IL-22 and IFNγ production.
Total CD4^+ T cells were isolated from peripheral blood mononuclear cells (PBMCs) of healthy donors using a CD4^+ T cell Isolation Kit II (Miltenyl Biotec, Auburn, CA), following the manufacturer’s instructions.
In vitro human Th17 and Th1 differentiation
Total CD4+ T cells were isolated from the peripheral blood mononuclear cells (PBMCs) of healthy donors
using a CD4+ T cell Isolation Kit II (Miltenyl Biotec, Auburn, CA), following the manufacturer’s
instructions. Isolated T cells were resuspended in culture medium and added to a 96-well plate at 1×105
beads (prepared using human T cell activation/expansion kit, Miltenyi Biotec) at final concentration of
3x10^6/mL, and cocktail for either Th17 differentiation (10 µg/mL anti-IL-4, 10 µg/mL anti-IFN, 10 ng/mL
IL-1β, 10 ng/mL IL-23, 50 ng/mL IL-6, 3 ng/mL TGFβ and 20 U/mL IL-2), or for Th1 differentiation (10
µg/mL anti-IL-4, 10 ng/mL IL-12, and 20 U/mL IL-2). Cells were cultured at 37°C and 5% CO2 for 3 days.
Supernatants were assayed for accumulated cytokines using MSD multi-spot assay (Meso Scale
Discovery, Rockville, MD) or R&D ELISA kit.

dogs = assay: chronic dosing up to 9 months in dogs; assay type: in vivo; conditions: dog, data not shown, reversible
Source text: This is consistent with the reported physiological role of RORγt as a critical molecule in controlling the survival of thymocytes[7],[66]. JNJ-61803534-induced thymocyte apoptosis was reversible and was deemed non-adverse alterations.

rat bone marrow = assay: in vivo rat micronucleus test on bone marrow
[2] = tested on: mouse collagen-induced arthritis (CIA) model; assay: mouse collagen-induced arthritis (CIA) model; assay type: in vivo; conditions: for reduction of clinical arthritis scores (AUC) vs vehicle, efficacy % inhibition: day 21-35
Protocol: On Day 0, mice (female DBA/1Lacj, Jackson Laboratories; 8–10 weeks) were immunized at the base of the tail with an emulsion containing equal amounts of Chick Type II Collagen (Chondrex, Redmond, WA) and Complete-Freund’s adjuvant (CFA, Chondrex), 100 µg each per mouse, and administered a second immunization boost on day 21. On this day, animals were examined for clinical arthritis scores and randomized into treatment groups. […] Clinical arthritis scores were evaluated from day 21 to 34, and animals were euthanized under CO2 on day 35. Both hind paws from each animal were collected and fixed in 10% neutral buffered formalin for histopathology.

ADRA2B - AG = ADRA2B - AG (Homo sapiens, UniProt P18089); assay: GPCR panel, cAMP or calcium FLIPR assays; assay type: cell-based
Chain of ADRA2B - AG (P18089 whole entry): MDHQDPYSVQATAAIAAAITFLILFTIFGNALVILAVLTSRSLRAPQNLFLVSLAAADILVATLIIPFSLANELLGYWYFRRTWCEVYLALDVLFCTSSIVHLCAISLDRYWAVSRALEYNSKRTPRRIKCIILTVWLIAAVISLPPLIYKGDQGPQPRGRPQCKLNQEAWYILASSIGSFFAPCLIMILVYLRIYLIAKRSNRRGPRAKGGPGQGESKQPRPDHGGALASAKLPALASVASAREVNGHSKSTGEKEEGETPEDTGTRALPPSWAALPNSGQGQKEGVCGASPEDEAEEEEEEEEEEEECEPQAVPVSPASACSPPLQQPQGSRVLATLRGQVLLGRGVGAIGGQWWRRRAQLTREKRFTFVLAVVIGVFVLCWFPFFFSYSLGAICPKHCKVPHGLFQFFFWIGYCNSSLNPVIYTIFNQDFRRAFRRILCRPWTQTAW
Protocol: (§1) 28 GPCRs were evaluated through cAMP or calcium FLIPR assays[67].

Na+ channel (site 2) = assay: Cerep panel; assay type: binding
Protocol: (§2) A panel of 52 different receptors, ion channels and transporters was tested by Cerep, Inc. (Redmond, WA).

Y2 (h) = target: T1, Y2 (h) (Homo sapiens, UniProt P49146); assay: Cerep panel; assay type: binding
T1 construct: purchased Cerep (receptors, ion channels, transporters); Eurofins Panlabs (kinases)
T1 sequence (P49146 whole entry): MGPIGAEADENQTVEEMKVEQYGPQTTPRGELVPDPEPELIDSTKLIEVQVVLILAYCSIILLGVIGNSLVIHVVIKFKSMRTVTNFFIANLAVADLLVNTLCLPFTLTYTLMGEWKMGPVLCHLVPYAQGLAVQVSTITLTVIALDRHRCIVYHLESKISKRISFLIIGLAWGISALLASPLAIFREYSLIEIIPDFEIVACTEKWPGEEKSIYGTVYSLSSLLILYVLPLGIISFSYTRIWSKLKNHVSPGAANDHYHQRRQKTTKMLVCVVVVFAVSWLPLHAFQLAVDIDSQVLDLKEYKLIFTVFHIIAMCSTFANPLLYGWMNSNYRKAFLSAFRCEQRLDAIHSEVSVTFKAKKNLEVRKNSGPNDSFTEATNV
Protocol: as §2

NK2 = NK2 (Homo sapiens, UniProt P21452); assay: follow-up functional study; assay type: cell-based
Chain of NK2 (P21452 whole entry): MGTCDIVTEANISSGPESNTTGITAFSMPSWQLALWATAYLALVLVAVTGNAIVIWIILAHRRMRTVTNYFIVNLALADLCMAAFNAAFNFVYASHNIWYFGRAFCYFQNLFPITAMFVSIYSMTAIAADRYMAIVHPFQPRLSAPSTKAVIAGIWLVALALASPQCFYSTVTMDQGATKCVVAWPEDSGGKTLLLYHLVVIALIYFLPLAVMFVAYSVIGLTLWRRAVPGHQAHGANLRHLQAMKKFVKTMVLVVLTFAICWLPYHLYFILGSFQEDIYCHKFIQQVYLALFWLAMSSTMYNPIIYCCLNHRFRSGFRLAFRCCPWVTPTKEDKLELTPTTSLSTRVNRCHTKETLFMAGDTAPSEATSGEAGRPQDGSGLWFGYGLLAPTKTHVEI

[3] = target: hGABAAα1β2γ2-gated Cl− channel (Homo sapiens, UniProt P14867+P18507+P47870); assay: follow-up functional study; assay type: cell-based; conditions: read-out: IC50 in follow-up functional studies
FXR = target: T2, FXR (Homo sapiens, UniProt Q96RI1); assay: nuclear receptor cellular GAL4 reporter assay; assay type: cell-based; conditions: agonist and antagonist mode; read-out: potency in agonist and antagonist mode
T2 construct: expressed in transfected cells

[4] = tested on: bacterial reverse mutation assay (AMES test); assay: bacterial reverse mutation assay (AMES test); assay type: cell-based; conditions: in vitro
Flt3(h) = target: T3, Flt3(h) (Homo sapiens, UniProt P36888); assay: Kinase panel; assay type: biochemical
T3 construct: purchased Cerep (receptors, ion channels, transporters); Eurofins Panlabs (kinases)
T3 sequence (P36888 27-993): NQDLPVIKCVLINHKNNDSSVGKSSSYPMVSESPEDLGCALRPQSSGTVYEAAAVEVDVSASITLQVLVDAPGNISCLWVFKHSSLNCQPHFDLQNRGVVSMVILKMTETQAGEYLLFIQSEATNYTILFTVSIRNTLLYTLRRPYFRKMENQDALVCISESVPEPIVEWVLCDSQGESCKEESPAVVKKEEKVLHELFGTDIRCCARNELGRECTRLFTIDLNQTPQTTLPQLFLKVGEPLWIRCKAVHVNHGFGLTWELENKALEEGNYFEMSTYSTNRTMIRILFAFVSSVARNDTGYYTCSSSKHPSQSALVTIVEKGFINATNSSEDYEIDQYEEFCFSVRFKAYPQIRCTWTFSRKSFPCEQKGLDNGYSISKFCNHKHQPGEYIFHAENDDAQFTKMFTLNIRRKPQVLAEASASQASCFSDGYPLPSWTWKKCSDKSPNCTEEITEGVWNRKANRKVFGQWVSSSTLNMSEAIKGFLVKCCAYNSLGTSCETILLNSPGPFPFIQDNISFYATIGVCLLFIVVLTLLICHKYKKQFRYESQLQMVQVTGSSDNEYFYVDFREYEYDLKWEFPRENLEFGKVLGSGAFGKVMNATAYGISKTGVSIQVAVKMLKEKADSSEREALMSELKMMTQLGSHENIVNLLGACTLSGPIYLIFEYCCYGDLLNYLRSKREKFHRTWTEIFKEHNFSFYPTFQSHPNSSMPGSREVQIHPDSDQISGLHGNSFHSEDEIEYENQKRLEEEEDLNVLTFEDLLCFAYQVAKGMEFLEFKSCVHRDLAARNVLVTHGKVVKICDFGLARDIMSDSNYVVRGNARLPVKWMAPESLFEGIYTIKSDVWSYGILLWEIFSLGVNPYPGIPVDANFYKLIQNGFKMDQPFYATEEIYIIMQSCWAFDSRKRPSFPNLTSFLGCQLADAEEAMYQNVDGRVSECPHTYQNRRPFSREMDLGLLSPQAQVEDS
Protocol: (§3) Kinase selectivity was conducted by Eurofins Panlabs Inc (St Charles, MO).

Pim-2(h) = target: T4, Pim-2(h) (Homo sapiens, UniProt Q9P1W9); assay: Kinase panel; assay type: biochemical
T4 construct: purchased Cerep (receptors, ion channels, transporters); Eurofins Panlabs (kinases)
Protocol: as §3

EGFR(h) = target: T5, EGFR(h) (Homo sapiens, UniProt P00533); assay: Kinase panel; assay type: biochemical
T5 construct: purchased Cerep (receptors, ion channels, transporters); Eurofins Panlabs (kinases)
T5 sequence (P00533 25-1210): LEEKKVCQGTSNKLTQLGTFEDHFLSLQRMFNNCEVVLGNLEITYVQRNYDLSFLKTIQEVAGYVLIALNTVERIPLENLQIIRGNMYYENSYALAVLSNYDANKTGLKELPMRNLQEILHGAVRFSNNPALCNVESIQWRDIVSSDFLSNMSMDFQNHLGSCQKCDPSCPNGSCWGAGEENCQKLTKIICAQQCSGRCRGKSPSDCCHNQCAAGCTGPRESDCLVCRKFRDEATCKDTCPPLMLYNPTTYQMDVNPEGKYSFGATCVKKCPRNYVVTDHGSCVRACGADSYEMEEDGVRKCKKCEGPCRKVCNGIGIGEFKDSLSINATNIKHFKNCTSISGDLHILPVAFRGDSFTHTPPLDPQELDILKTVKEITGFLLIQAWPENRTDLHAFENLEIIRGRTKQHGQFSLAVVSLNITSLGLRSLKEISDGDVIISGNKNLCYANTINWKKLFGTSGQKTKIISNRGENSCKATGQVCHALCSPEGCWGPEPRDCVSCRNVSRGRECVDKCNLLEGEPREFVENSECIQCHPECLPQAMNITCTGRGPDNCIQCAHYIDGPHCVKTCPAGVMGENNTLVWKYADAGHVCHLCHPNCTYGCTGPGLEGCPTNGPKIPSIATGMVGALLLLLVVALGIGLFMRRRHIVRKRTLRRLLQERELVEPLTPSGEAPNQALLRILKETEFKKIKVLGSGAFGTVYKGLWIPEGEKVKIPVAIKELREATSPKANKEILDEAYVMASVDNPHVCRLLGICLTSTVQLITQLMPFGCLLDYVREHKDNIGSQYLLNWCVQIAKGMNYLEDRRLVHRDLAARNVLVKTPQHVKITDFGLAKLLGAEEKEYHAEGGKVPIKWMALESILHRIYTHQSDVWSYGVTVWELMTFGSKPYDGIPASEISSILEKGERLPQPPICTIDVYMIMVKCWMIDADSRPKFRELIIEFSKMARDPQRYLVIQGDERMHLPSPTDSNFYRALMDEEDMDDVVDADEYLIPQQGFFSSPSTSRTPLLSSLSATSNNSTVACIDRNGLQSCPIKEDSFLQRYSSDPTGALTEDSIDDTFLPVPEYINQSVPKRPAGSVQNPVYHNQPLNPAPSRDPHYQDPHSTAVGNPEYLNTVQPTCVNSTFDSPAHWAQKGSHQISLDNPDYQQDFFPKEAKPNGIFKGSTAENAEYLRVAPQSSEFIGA
Protocol: as §3

5-HT1B = target: T6, 5-HT1B (Rattus norvegicus, UniProt P28564); assay: Cerep panel; assay type: binding
T6 construct: purchased Cerep (receptors, ion channels, transporters); Eurofins Panlabs (kinases)
Protocol: as §2

D1 = D1 (Homo sapiens, UniProt P21728); assay: GPCR panel, cAMP or calcium FLIPR assays; assay type: cell-based
Chain of D1 (P21728 whole entry): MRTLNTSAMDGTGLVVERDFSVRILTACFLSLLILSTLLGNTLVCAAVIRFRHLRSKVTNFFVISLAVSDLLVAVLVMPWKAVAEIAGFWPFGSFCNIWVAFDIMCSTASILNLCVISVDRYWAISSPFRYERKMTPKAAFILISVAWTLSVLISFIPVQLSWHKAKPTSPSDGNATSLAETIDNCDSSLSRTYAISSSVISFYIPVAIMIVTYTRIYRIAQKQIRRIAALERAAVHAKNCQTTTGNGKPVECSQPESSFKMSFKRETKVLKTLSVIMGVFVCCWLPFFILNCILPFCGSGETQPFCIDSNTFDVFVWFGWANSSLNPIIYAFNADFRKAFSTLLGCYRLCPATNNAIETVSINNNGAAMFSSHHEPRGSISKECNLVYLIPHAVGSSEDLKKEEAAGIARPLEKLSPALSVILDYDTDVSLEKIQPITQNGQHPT
Protocol: as §1

Ret(h) = target: T7, Ret(h) (Homo sapiens, UniProt P07949); assay: Kinase panel; assay type: biochemical
T7 construct: purchased Cerep (receptors, ion channels, transporters); Eurofins Panlabs (kinases)
Protocol: as §3

JAK2(h) = target: T8, JAK2(h) (Homo sapiens, UniProt O60674); assay: Kinase panel; assay type: biochemical
T8 construct: purchased Cerep (receptors, ion channels, transporters); Eurofins Panlabs (kinases)
T8 sequence (O60674 whole entry): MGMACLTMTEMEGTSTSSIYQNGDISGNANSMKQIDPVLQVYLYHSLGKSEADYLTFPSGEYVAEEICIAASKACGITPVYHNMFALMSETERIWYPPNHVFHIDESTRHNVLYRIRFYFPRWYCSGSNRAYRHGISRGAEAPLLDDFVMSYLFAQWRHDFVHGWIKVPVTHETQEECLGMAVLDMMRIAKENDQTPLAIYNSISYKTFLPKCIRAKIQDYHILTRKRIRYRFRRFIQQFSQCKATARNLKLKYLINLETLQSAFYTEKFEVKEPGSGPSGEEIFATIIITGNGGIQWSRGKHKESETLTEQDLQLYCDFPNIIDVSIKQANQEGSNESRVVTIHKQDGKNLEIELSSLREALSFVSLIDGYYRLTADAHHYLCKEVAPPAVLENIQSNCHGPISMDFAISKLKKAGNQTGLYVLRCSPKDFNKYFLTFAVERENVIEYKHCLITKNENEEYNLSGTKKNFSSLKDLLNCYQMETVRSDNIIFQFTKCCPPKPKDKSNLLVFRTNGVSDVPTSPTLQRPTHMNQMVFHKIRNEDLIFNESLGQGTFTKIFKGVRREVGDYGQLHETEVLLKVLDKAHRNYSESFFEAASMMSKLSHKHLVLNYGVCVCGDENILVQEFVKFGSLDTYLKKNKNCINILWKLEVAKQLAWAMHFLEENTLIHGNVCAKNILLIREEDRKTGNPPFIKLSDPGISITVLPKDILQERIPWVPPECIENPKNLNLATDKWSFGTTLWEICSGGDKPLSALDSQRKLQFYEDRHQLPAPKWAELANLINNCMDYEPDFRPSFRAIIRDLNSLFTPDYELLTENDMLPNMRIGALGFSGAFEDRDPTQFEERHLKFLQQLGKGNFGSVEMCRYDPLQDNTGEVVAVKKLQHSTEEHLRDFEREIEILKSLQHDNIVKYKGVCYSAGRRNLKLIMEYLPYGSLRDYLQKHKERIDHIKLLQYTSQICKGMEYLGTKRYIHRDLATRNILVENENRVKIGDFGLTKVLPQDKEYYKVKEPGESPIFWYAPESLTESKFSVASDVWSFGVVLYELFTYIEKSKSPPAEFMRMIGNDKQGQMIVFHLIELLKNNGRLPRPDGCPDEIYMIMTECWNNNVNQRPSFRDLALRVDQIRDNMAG
Protocol: as §3

ETA (h) = target: T9, ETA (h) (Homo sapiens, UniProt P25101); assay: Cerep panel; assay type: binding
T9 construct: purchased Cerep (receptors, ion channels, transporters); Eurofins Panlabs (kinases)
Protocol: as §2

Compound CC1CCCN1C(=O)c1nc(C(=O)NCC(C)(C)O)sc1-c1ccc(C(O)(C(F)(F)F)C(F)(F)F)c(Cl)c1Cl (stereo not drawn) [JNJ-61803534] has an IC50 ([1]; read-out: IC50 (95% confidence intervals), IL-17A production) of 19 nM, an IC50 ([1]; read-out: IC50 (95% confidence intervals), IL-17F production) of 22 nM and an IC50 ([1]; read-out: IC50 (95% confidence intervals), IL-22 production) of 27 nM. For the same compound, the thymus finding (dogs) was “increase in medium-sized thymocytes/mitoses”, the genetic toxicity (rat bone marrow) was “negative” and the “disease incidence at day 35” value ([2]; 3 mg/kg BID) was 100%. For the same compound, the “reduction of clinical arthritis scores (AUC) vs vehicle, efficacy % inhibition” value (“reduction … efficacy % inhibition” for short) ([2]; 3 mg/kg BID oral) was 30%, the “disease incidence at day 35” value ([2]; 10 mg/kg BID) was 89% and the “reduction … efficacy % inhibition” value ([2]; 10 mg/kg BID oral) was 44%. For the same compound, the “disease incidence at day 35” value ([2]; 30 mg/kg BID) was 80%, the “reduction … efficacy % inhibition” value ([2]; 30 mg/kg BID oral) was 66% and the “disease incidence at day 35” value ([2]; 60 mg/kg QD) was 100%. The “reduction … efficacy % inhibition” value ([2]; 60 mg/kg QD oral, p > 0.05) was 13%, the “disease incidence at day 35” value ([2]; 100 mg/kg BID) was 45% and the “reduction … efficacy % inhibition” value ([2]; 100 mg/kg BID oral) was 88%. For the same compound, the “inhibition of total histopathology score” value ([2]; 100 mg/kg, BID, oral) was 94%, the “maximum inhibition for final arthritic score” value ([2]; 100 mg/kg, BID, oral) was 88% and the “maximum inhibition of clinical score” value ([2]; mouse, in vivo) was ~ 90%. The EC50 (ADRA2B - AG; agonist) was > 12.5 µM, the IC50 (ADRA2B - AG; antagonist) was > 12.5 µM and the “% Inhibition at 1 µM” value (Na+ channel (site 2); 1 µM) was 15%. The “% Inhibition at 10 µM” value (Na+ channel (site 2); 10 µM) was 46%, the inhibition at 1 µM (Y2 (h)) was < 10% and the inhibition at 10 µM (Y2 (h)) was < 10%. The IC50 (NK2; read-out: IC50 in follow up functional assays) was > 30000 nM, the “effect on NK2 in follow-up functional studies” value (NK2; up to 30 µM) was “no effect” and the IC50 [3] was > 30000 nM. The IC50 (FXR) was > 1500 nM, the genetic toxicity [4] was “negative” and the activity at 1 µM (Flt3(h)) was 84%. It also gave an activity at 10 µM (Flt3(h)) of 103%, an activity at 1 µM (Pim-2(h)) of 102% and an activity at 10 µM (Pim-2(h)) of 107%. For the same compound, the activity at 1 µM (EGFR(h)) was 100%, the activity at 10 µM (EGFR(h)) was 101% and the inhibition at 1 µM (5-HT1B) was < 10%. The inhibition at 10 µM (5-HT1B) was 15.6%, the EC50 (D1; agonist) was > 12.5 µM and the IC50 (D1; antagonist) was > 12.5 µM. The activity at 1 µM (Ret(h)) was 107%, the activity at 10 µM (Ret(h)) was 104% and the activity at 1 µM (JAK2(h)) was 109%. For the same compound, the activity at 10 µM (JAK2(h)) was 105%, the inhibition at 1 µM (ETA (h)) was < 10% and the inhibition at 10 µM (ETA (h)) was < 10%.
